Experimental data published in ChEMBL document CHEMBL5104167, “Development and profiling of mGlu7 NAMs with a range of saturable inhibition of agonist responses in vitro” (Bioorg Med Chem Lett, 2022).

How the values were obtained:
[1] = target: T1, Metabotropic glutamate receptor 7 (Homo sapiens, UniProt Q14831)
[2] = target: T1, Metabotropic glutamate receptor 7; remark: listed apart in the source
[3] = Ratio of drug level in brain to plasma in rat; format: ADME, cell-free
[4] = target: Metabotropic glutamate receptor 7 (Rattus norvegicus, UniProt P35400); assay: Negative allosteric modulation of rat mGlu7 in HEK cells expressing Galpha15 assessed as inhibition of L-AP4-induced response measured by calcium mobilization assay; format: functional, cell-based
[5] = Drug concentration in rat brain assessed as unbound fraction; format: ADME, tissue-based
[6] = Plasma protein binding in rat assessed as unbound fraction; format: ADME, cell-free
[7] = filed as negative allosteric modulator

T1 sequence (Q14831 whole entry): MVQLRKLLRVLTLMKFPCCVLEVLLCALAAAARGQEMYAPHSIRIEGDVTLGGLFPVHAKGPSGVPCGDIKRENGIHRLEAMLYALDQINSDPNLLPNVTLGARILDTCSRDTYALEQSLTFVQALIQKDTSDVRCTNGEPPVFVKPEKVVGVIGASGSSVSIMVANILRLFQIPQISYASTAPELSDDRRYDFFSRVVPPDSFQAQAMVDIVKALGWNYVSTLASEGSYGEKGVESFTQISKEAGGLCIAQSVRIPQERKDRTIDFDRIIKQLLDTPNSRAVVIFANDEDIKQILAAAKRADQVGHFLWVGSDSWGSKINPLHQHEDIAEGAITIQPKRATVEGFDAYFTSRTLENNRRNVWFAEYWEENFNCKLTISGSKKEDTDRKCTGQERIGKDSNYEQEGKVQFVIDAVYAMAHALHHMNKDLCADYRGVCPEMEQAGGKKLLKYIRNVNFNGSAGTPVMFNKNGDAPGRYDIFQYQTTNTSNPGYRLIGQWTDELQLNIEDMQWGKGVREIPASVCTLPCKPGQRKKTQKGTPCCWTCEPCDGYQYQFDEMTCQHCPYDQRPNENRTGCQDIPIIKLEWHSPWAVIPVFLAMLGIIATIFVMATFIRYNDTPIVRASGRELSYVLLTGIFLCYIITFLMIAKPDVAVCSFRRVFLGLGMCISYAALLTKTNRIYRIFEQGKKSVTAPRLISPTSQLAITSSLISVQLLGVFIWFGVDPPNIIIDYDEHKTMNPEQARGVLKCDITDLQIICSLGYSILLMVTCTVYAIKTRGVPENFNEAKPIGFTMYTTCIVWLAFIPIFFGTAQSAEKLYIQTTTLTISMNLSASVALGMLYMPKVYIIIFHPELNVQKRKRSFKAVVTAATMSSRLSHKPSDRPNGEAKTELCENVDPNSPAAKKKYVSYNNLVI
Metabotropic glutamate receptor 7 (Rattus norvegicus, UniProt P35400), sequence (P35400 whole entry): as the sequence (Q14831 whole entry) above, with R5G, A27V, N454H, S488T, A520S, D578N counted along it

COc1ccc(-c2nnc(-c3cc(OC(F)(F)F)ccc3-n3ccnc3)o2)cc1OC
IC50 [1]: 3 µM
Emin [2]: 0%
Kp [3]: 4.9

COc1cc(C(=O)Nc2cc(OC(F)(F)F)ccc2-n2cncn2)ccc1OC1CCC1
IC50 [4]: 1000 nM
IC50 [1]: 3.1 µM
Emin [2]: 19%

COc1ccc(-c2noc(-c3cc(Cl)c(F)cc3-n3cncn3)n2)cc1OC
IC50 [4]: > 30000 nM
Emin [2, 7]: 74%

COc1cc(OCC(=O)Nc2cc(OC(F)(F)F)ccc2-n2cncn2)ccc1OC1COC1
IC50 [4]: 263 nM
IC50 [1]: 0.819 µM
Emin [2]: 21.1%

COc1ccc(-c2nnc(-c3cc(OC(F)(F)F)ccc3-c3cn[nH]c3)o2)cc1OC
IC50 [4]: 2000 nM
IC50 [1]: 5.4 µM
Emin [2]: 26%

COc1ccc(-c2nnc(-c3cc(Cl)ccc3-c3ccnn3C)o2)cc1OC
fraction unbound [5]: 0.009
Fu [6]: 3.9%

COc1ccc(-c2noc(-c3cc(Cl)ccc3-n3cncn3)n2)c(F)c1OC
IC50 [4]: > 30000 nM
Emin [2, 7]: 59%

COc1ccc(-c2nnc(-c3cc(OC(F)(F)F)ccc3-n3cncn3)o2)cc1OC
IC50 [4]: 2000 nM
IC50 [1]: 1.3 µM
Emin [2, 7]: 60%

COc1cc(C(=O)Nc2cc(OC(F)(F)F)ccc2-n2cncn2)ccc1OCC1CC1
Kp [3]: 2.4

COc1ccc(-c2coc(-c3cc(OC(F)(F)F)ccc3-n3cncn3)n2)cc1OC
IC50 [4]: > 10000 nM
Emin [2, 7]: 45%

COc1ccc(-c2noc(-c3cc(Cl)cc(F)c3-n3cncn3)n2)c(F)c1OC
IC50 [4]: 1000 nM
Emin [2, 7]: 69%

CCOC(=O)c1cnc2c(OC)cccc2c1-c1ccc(-c2cc(F)cnc2OC)nc1
IC50 [4]: 2400 nM
IC50 [1]: 4.57 µM
Emin [2]: 22.4%
